According to patent US20130085133A1, “ANTI-VIRAL TREATMENT AND ASSAY TO SCREENFOR ANTI-VIRAL AGENT” (Sourthern Research Institute Office of Commercialization …, priority 2010, published 2013):
pEC50: −log10 of the molar value.

Columns and labels:
[1] = test system: respiratory syncytial virus (RSV) strain Long; test: microbe, parasite or virus in culture; settings: human respiratory syncytial virus, HEp-2, 144 h
[2] = cytotoxicity assay (percent viability of HEp-2 cells, Cell Titer-Glo); settings: human, HEp-2 cells
Protocol: Test compounds were evaluated by measuring their antiviral activity, cell toxicity, and selectivity. Test compounds were serially diluted in a plate to plate matrix or “stacked plate” matrix. All 320 compounds in a source plate were diluted together resulting in a 10 point dose response dilution series. It was visualized as a serial dilution series proceeding vertically through a stack of plates with the high dose plate on top and the low dose plate on the bottom.
Following the six day incubation period, the assay plates were equilibrated to room temperature for 30 min and an equal volume (30 μL) of Cell Titer-Glo reagent (Promega Inc.) was added to each well using a WellMate (Matrix, Hudson, N.H.) and plates were incubated for an additional 10 min at room temperature. At the end of the incubation, luminescence was measured using a Perkin Elmer Envision™ multi-label reader (PerkinElmer, Wellesley, Mass.) with an integration time of 0.1 s.
Data was analyzed using ActivityBase software (IDBS, Inc, Guilford, UK). thirty two control wells containing cells only and twenty four wells containing cells and virus were included on each assay plate and used to calculate Z′ value for each plate and to normalize the data on a per plate basis. […] Eight ribavirin positive control wells were included on each plate for quality control purposes, but were not used in Z′ calculations. […] In the toxicity assay, results are described as percent viability and the calculation is the same.
An EC50 (for CPE inhibition) and IC50 (for cell viability) were calculated for each substance using the 4 parameter Levenburg-Marquardt algorithm with parameter A locked at 0 and parameter B locked at 100. Standard deviation, normalized chi2 and hill slope were used to evaluate the curves. Values were not extrapolated beyond the tested range of concentrations.

Compound	EC50 [1] [µg/mL]	CC50 at 6 days [2]	pEC50 [1]
CC(=O)c1cccc(NC(=S)NNC(=S)Nc2ccc(F)cc2F)c1 [AB00349666]	21.2	> 25 µg/mL	–
CCOC(=O)c1ccc(NC(=O)NC(C)C2CCCO2)cc1 (centres unmarked) [AB00349705]	19.2	> 25 µg/mL	–
COC(=O)c1sc2cc(NC(=S)NCCCN3CCCC3=O)ccc2c1Cl [AB00351451]	17.5	> 25 µg/mL	–
COc1ccc(-c2ccc(-c3noc(-c4ccco4)n3)c(OC)n2)cc1 [AB00353001]	18.4	> 25 µg/mL	–
CCOC(=O)C1=C(c2ccccc2)NC(=S)NC1c1ccccc1OCC(=O)Nc1ccccc1 (centres unmarked) [AB00355044]	6.39	> 25 µg/mL	–
Cc1ccc(NC(=O)CN2CCCC2)c(Br)c1 [AB00358122]	20.1	> 25 µg/mL	–
Cc1nc(N)sc1-c1nnc(Nc2ccccc2)s1 [AB00358926]	12.7	> 25 µg/mL	–
CC(=O)Nc1ccc(C(=O)OCc2ccc(C(C)=O)cc2)cc1 [AB00359127]	18.9	> 25 µg/mL	–
CC1CCCCN1C(=O)c1ccc(NC(=O)c2ccccc2Cl)cc1 (centres unmarked) [AB00359707]	11.4	> 25 µg/mL	–
COc1ccc(S(=O)(=O)N2CCC(C(=O)N3CCN(c4ccccc4)CC3)CC2)cc1Cl [AB00362388]	17	> 25 µg/mL	–
C=CCN(CC=C)C(=O)c1ccc(OC)c(I)c1 [AB00362750]	21	> 25 µg/mL	–
Fc1cnc(N2CCOCC2)nc1N1CCc2ccccc21 [AB00362810]	21.1	> 25 µg/mL	–
S=C(c1ccc(OCc2cccc3ccccc23)cc1)N1CCOCC1 [AB00362891]	23.4	> 25 µg/mL	–
CC1(C)Cc2c(sc(NC(=O)c3ccccc3Br)c2C(N)=O)CO1 [AB00363547]	13.3	> 25 µg/mL	–
CCC(=O)Nc1ccc(C(=O)OCc2cccc(F)c2)cc1 [AB00363859]	12.6	> 25 µg/mL	–
COc1ccc(-n2nnnc2SCCO)cc1 [AB00364099]	19.2	> 25 µg/mL	–
COc1ccc(NC(=O)c2ccc(C)c(S(=O)(=O)Nc3ccccc3C)c2)cc1OC [AB00364640]	11.5	> 25 µg/mL	–
CCOC(=O)c1ccc(NC(=O)Nc2ccccc2OC)cc1 [AB00365318]	11.6	> 25 µg/mL	–
CC(Oc1ccc(-c2ccccc2)cc1)C(=O)Nc1nnc(C2CCCO2)s1 (centres unmarked) [AB00365647]	19.3	> 25 µg/mL	–
O=C(Nc1c(F)cc(F)cc1Br)c1ccc(Cl)s1 [AB00366410]	20.2	> 25 µg/mL	–
O=C(NC1=NCCS1)c1cc2c(s1)CCCCCC2 [AB00367559]	19.6	> 25 µg/mL	–
CCn1c(=O)n(CC)c2cc(NC(=O)c3ccccc3Cl)c(Br)cc21 [AB00369510]	10.4	> 25 µg/mL	–
CSc1ccc(Cl)c(C(=O)Nc2ccc(Cc3ccccn3)cc2)c1 [AB00369798]	11.6	> 25 µg/mL	–
O=C(Nc1ccc2c(c1)ncn2C1CCCCC1)c1cccs1 [AB00369934]	13.6	> 25 µg/mL	–

Compound	EC50 [1] [µg/mL]	CC50 at 6 days [2]	pEC50 [1]
c1coc(-c2nn3c(Cn4nnc5ccccc54)nnc3s2)c1 [AB00370063]	1.97	> 25 µg/mL	–
O=S(=O)(Nc1ccc(-c2cn3cccnc3n2)cc1)c1cc(Cl)ccc1Cl [AB00370838]	22.5	> 25 µg/mL	–
Cn1c(SCC(=O)N2c3ccccc3SC3C=CC=CC32)nnc1-c1ccccc1 (centres unmarked) [AB00370949]	18.8	> 25 µg/mL	–
Cc1cc(C)n2nc(C(=O)Nc3cnn(C45CC6CC(CC(C6)C4)C5)c3)cc2n1 [AB00371387]	12.7	> 25 µg/mL	–
Cc1cc(SCCC#N)nc2ccccc12 [AB00371866]	13.7	> 25 µg/mL	–
CCOc1nc2sc3c(c2c2ncnn12)CCCC3 [AB00372085]	11.6	> 25 µg/mL	–
O=c1c2c3c(sc2ncn1CCO)CCCC3 [AB00372624]	23.6	> 25 µg/mL	–
N#CCCCCN1c2cccc3cccc(c23)S1(=O)=O [AB00373143]	14.3	> 25 µg/mL	–
CCOC(=O)CCC(NC(=O)c1cnc(NCc2cnc3nc(N)nc(N)c3c2C)s1)C(=O)OCC (centres unmarked) [AB00375242]	–	> 50 µM	4.38
OCc1cccc2c(Br)cccc12 [AB00375379]	–	> 50 µM	4.41
N#Cc1c(Cl)nc(N)c(N)c1C(F)(F)F [AB00430151]	–	> 50 µM	4.42
NC(=O)c1ncn([C@@H]2O[C@H](CO)[C@@H](O)[C@H]2O)n1 [AB00430481]	–	> 50 µM	4.41
CNc1ncnc2c1ncn2[C@H]1C[C@@H](CO)[C@H](O)[C@@H]1O [AB00430484]	–	> 50 µM	4.47
Nc1c(N=Nc2ccc(-c3ccc(N=Nc4cc(S(=O)(=O)O)c5ccccc5c4N)cc3)cc2)cc(S(=O)(=O)O)c2ccccc12 [AB00443629]	–	> 50 µM	4.45
CC(C)CCCC(C)C1CC[C@@H]2[C@@H]3CC[C@@H]4CC(CCC=C(c5cc(Cl)c(O)c(C(=O)O)c5)c5cc(Cl)c(O)c(C(=O)O)c5)CC[C@]4(C)[C@@H]3CC[C@]12C (some centres unmarked) [AB00443953]	–	> 50 µM	4.67
O=S(=O)(O)c1cc(/N=N/c2cc(S(=O)(=O)O)c3cccnc3c2O)ccc1CCc1ccc(/N=N/c2cc(S(=O)(=O)O)c3cccnc3c2S)cc1S(=O)(=O)O [AB00444131]	–	> 50 µM	4.73
O=S(=O)(O)c1cc(/N=N/c2cc(S(=O)(=O)O)c3cccnc3c2O)ccc1/C=C/c1ccc(/N=N/c2cc(S(=O)(=O)O)c3cccnc3c2O)cc1S(=O)(=O)O [AB00444372]	–	> 50 µM	4.96
CCOc1ccc(Nc2nc3cc(S(=O)(=O)N(CC)CC)ccc3o2)cc1 [AB00536652]	–	> 50 µM	4.41
O=c1c2c([nH]c3ccccc13)-c1ccccc1-n1c(nc3ccccc3c1=O)C2 [AB00700560]	–	> 50 µM	4.95
Cc1cc(C)n(-c2ccc(C(=O)Nc3cc(Cl)ccc3C)cc2)n1 [AB00712667]	–	> 50 µM	4.62
CCOC(=O)C1=C(C)NC(C)=C(C(=O)OCC)C1C(=O)OCC(=O)Nc1c(Cl)cccc1Cl [AB00712684]	–	> 50 µM	4.66
CSc1ccc(Cl)c(C(=O)Nc2ccc(N3CCCCC3)cc2)c1 [AB00717474]	–	> 50 µM	4.91
C=CC/N=c1\scc(-c2ccc(C)cc2)n1/N=C/c1ccccn1 [AB00718339]	–	> 50 µM	5.94
CCOC(=O)c1ccccc1NC(=O)c1cc(S(=O)(=O)N(CC)c2ccccc2)ccc1Cl [AB00718457]	–	> 50 µM	4.62

Compound	EC50 [1] [µg/mL]	CC50 at 6 days [2]	pEC50 [1]
Cc1ccc(O)c(C(=O)c2cc(C(=O)Nc3ccccc3C)c(=O)n(-c3ccccc3C)c2)c1 [AB00719359]	–	> 50 µM	4.53
Cc1ccc(-c2csc(NC(=O)COC(=O)c3cccc(Cl)c3)n2)cc1C [AB00720414]	–	> 50 µM	4.31
CC(C)(C)C1CCc2nc3ccccc3c(C(=O)OCC(=O)Nc3ccc(C#N)cc3)c2C1 (centres unmarked) [AB00721928]	–	> 50 µM	4.38
C/C(N)=C(/C#N)C(=O)COC(=O)c1ccccc1SCC(=O)NC1CCCCCCC1 [AB00723775]	–	> 50 µM	4.63
C/C(N)=C(/C#N)C(=O)CSc1nnc2c(Cl)cc(C(F)(F)F)cn12 [AB00724801]	–	> 50 µM	4.79
O=C(COC(=O)c1c2c(nc3ccccc13)/C(=C/c1cccs1)CC2)NCC(F)(F)F [AB00725240]	–	> 50 µM	4.36
CCOc1ccccc1/C=C(\C#N)c1nc2sc3c(c2c(=O)[nH]1)CCCC3 [AB00726710]	–	> 50 µM	4.51
CCc1ccc(Nc2nnc(SCC(=O)Nc3cc(OC)c([N+](=O)[O-])cc3C)s2)cc1 [AB00728303]	–	> 50 µM	4.55
C/C(N)=C(/C#N)C(=O)CSc1nc2sc3c(c2c(=O)n1-c1ccccc1C(F)(F)F)CCCCC3 [AB00728757]	–	> 50 µM	4.74
COCCn1c(SCC(=O)NC2CCCc3ccccc32)nnc1-c1cccc(C)c1 (centres unmarked) [AB00728760]	–	> 50 µM	4.42
O=C(CCNC(=O)c1ccc(Br)cc1)NC1CCCc2ccccc21 (centres unmarked) [AB00739576]	–	> 50 µM	4.61
CCN(c1ccccc1)S(=O)(=O)c1cccc(C(=O)Nc2nccs2)c1 [AB00739796]	–	> 50 µM	4.65
C=CCn1c(SC(C)C(=O)Nc2cc(C(F)(F)F)ccc2Cl)nnc1-c1ccccc1OC (centres unmarked) [AB00741842]	–	> 50 µM	4.57
COc1ccc(-c2nc(CSc3nnc(C4CC4)n3C3CC3)cs2)cc1 [AB00747970]	–	> 50 µM	4.97
Cc1cccc(NC(=O)COC(=O)c2ccc(F)cc2N)c1C [AB00756405]	–	> 50 µM	4.94
O=C(c1cccc(OC(F)F)c1)N1CCc2cc([N+](=O)[O-])ccc21 [AB00764110]	–	> 50 µM	4.38
CC(=O)Nc1cc(C(=O)CSc2nc3ccccc3n2C)ccc1O [AB00766545]	–	> 50 µM	4.58
COc1cccc(Nc2nnc(SCC(=O)/C(C#N)=C(\C)N)s2)c1 [AB00767910]	–	> 50 µM	5.22
O=C(COc1ccc(Cl)c(Cl)c1)Nc1cccc(C(=O)NC2CC2)c1 [AB00784993]	–	> 50 µM	4.92
Cc1noc(C)c1S(=O)(=O)N1CCN(Cc2ccccc2C#N)CC1 [AB00785032]	–	> 50 µM	4.33
Cc1ccc(-c2csc3ncn(Cc4cc(=O)oc5cc(Br)ccc45)c(=O)c23)cc1 [AB00785889]	–	> 50 µM	4.63
Cc1ccc2c(Cn3cnc4scc(-c5ccc(Br)cc5)c4c3=O)cc(=O)oc2c1 [AB00796961]	–	> 50 µM	4.50
